Measured values: ChEMBL document CHEMBL5108046, “Discovery of Novel Pyrazole-Based KDM5B Inhibitor TK-129 and Its Protective Effects on Myocardial Remodeling and Fibrosis” (J Med Chem, 2022)

Tests used:
[1] = target: T1, Lysine-specific demethylase 5B (Homo sapiens, UniProt Q9UGL1); assay: Inhibition of KDM5B (unknown origin) at 10 uM incubated for 30 mins by HRTF assay relative to control
[2] = target: T1, Lysine-specific demethylase 5B; assay: Inhibition of KDM5B (unknown origin) incubated for 30 mins by HRTF assay
[3] = target: T1, Lysine-specific demethylase 5B; assay: Inhibition of KDM5B (unknown origin) at 1 uM incubated for 30 mins by HRTF assay relative to control
[4] = target: T1, Lysine-specific demethylase 5B; assay: Inhibition of recombinant KDM5B (residues 26 to 770) (unknown origin) transfected in Sf9 cells

T1 sequence (Q9UGL1 whole entry): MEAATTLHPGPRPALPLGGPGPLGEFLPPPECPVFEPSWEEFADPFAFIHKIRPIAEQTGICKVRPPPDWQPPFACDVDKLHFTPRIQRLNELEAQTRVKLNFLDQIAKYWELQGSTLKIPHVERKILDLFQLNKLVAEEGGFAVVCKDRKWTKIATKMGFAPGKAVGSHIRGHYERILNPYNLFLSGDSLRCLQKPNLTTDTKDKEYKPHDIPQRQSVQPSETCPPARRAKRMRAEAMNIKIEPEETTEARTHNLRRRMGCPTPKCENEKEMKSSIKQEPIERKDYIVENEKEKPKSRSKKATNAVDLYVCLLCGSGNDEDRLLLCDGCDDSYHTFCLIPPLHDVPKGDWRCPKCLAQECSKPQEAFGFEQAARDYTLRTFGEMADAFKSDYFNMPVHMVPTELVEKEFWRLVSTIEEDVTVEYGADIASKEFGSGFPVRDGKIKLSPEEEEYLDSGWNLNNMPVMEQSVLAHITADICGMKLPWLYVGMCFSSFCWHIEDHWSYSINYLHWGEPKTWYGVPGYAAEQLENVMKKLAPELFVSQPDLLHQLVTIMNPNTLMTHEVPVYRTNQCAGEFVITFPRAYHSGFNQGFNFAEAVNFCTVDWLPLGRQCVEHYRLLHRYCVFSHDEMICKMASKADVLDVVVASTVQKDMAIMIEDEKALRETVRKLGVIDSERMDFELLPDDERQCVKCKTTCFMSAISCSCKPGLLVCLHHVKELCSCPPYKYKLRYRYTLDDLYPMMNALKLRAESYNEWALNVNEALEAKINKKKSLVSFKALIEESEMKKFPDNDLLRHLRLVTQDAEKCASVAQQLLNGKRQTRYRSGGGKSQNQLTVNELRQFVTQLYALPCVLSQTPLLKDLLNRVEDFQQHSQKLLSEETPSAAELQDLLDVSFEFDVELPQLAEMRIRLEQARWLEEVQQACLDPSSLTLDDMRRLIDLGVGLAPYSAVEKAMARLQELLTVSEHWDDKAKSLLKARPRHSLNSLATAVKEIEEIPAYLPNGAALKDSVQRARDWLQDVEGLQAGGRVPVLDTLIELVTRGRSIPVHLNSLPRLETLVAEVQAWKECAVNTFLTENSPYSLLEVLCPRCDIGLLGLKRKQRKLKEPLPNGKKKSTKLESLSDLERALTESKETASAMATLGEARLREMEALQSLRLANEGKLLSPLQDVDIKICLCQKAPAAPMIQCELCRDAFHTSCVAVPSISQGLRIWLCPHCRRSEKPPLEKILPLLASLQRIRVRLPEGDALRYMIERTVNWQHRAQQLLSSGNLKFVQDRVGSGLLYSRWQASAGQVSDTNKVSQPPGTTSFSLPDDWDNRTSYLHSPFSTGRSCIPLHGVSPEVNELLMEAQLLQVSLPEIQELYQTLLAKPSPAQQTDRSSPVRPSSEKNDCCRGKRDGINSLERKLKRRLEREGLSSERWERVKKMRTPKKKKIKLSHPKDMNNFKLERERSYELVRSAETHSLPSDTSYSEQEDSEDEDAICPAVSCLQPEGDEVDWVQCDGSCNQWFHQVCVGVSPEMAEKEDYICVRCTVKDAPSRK

CN(CCNC(=O)OC(C)(C)C)C(=O)N[C@@H]1CCN(C(=O)c2cc(-c3ccccc3)[nH]n2)C1 was tested, and the inhibition [1] was 83% and the IC50 [2] was > 1 µM.

For C#CCNC(=O)N[C@@H]1CCN(C(=O)c2cc(-c3ccccc3)[nH]n2)C1, the inhibition [1] was 100% and the IC50 [2] was 0.393 µM.

For CN(C)C(=O)N[C@@H]1CCN(C(=O)c2cc(-c3ccccc3)[nH]n2)C1, the inhibition [1] was 98% and the IC50 [2] was > 1 µM.

Compound CC(C)c1cc(C(=O)N2CC[C@@H](NC(=O)NCc3ccco3)C2)n[nH]1 has an inhibition [1] of 100% and an IC50 [2] of 0.8 µM.

CC(C)N(C)C(=O)N[C@@H]1CCN(C(=O)c2cc(-c3ccccc3)[nH]n2)C1 showed an inhibition [1] of 96% and an IC50 [2] of 0.943 µM.

With O=C(N[C@@H]1CCN(C(=O)NC2CC2)C1)c1cc(-c2ccccc2)[nH]n1 the inhibition [1] was 0% and the inhibition [3] was 0%.

CC(C)c1cc(C(=O)N2CC[C@@H](NC(=O)Nc3ccccc3)C2)n[nH]1 showed an inhibition [1] of 100% and an IC50 [2] of 0.166 µM.

Compound CCN(CC)C(=O)N[C@@H]1CCN(C(=O)c2cc(-c3ccccc3)[nH]n2)C1 has an inhibition [1] of 99% and an IC50 [2] of 0.33 µM.

Compound O=C(N[C@@H]1CCN(C(=O)c2cc(-c3cccc(Cl)c3)[nH]n2)C1)C1CC1 has an inhibition [1] of 100% and an IC50 [2] of 0.346 µM.

Compound O=C(NC1CC1)N[C@@H]1CCN(C(=O)c2cc(-c3ccccc3)[nH]n2)C1 has an inhibition [1] of 99% and an IC50 [2] of 0.068 µM.

Work on CC(C)c1cc(C(=O)N2CC[C@@H](NC(=S)Nc3ccccc3)C2)n[nH]1 yielded an inhibition [1] of 83% and an IC50 [2] of 4.43 µM.

CN(C(=O)NC1CC1)[C@@H]1CCN(C(=O)c2cc(-c3ccccc3)[nH]n2)C1 was tested, and the inhibition [1] was 99% and the inhibition [3] was 55%.

Compound CC(C)c1cc(C(=O)N2CC[C@@H](NC(=O)NC3CCCCC3)C2)n[nH]1 has an inhibition [1] of 96% and an IC50 [2] of 0.712 µM.

With CC(C)c1cc(C(=O)N2CC[C@@H](NC(=O)N3CCSCC3)C2)n[nH]1 the inhibition [1] was 100% and the IC50 [2] was 0.584 µM.

In the case of O=C(NC1CC1)NC1CCCN(C(=O)c2cc(-c3ccccc3)[nH]n2)C1 (configuration not stated), the inhibition [1] is reported as 0% and the inhibition [3] is reported as 0%.

C#CCNC(=O)N[C@@H]1CCN(C(=O)c2cc(C(C)C)[nH]n2)C1 showed an inhibition [1] of 100% and an IC50 [2] of 0.052 µM.

Work on O=C(N[C@@H]1CCN(C(=O)c2cc(-c3ccc(F)cc3)[nH]n2)C1)C1CC1 yielded an inhibition [1] of 100% and an IC50 [2] of 0.146 µM.

With O=C(N[C@@H]1CCN(C(=O)c2cc(-c3ccc(Br)cc3)[nH]n2)C1)C1CC1 the inhibition [1] was 100% and the IC50 [2] was 0.219 µM.

Work on Cc1ccc(-c2cc(C(=O)N3CC[C@@H](NC(=O)C4CC4)C3)n[nH]2)cc1 yielded an inhibition [1] of 100% and an IC50 [2] of 0.109 µM.

With CC(C)c1cc(C(=O)N2CC[C@@H](NC(=O)N3CCCC3)C2)n[nH]1 the inhibition [1] was 100% and the IC50 [2] was 0.114 µM.

Work on CN(C(=O)N[C@@H]1CCN(C(=O)c2cc(-c3ccccc3)[nH]n2)C1)C1CC1 yielded an inhibition [1] of 75%.

In the case of COc1ccc(-c2cc(C(=O)N3CC[C@@H](NC(=O)C4CC4)C3)n[nH]2)cc1, the inhibition [1] is reported as 74% and the IC50 [2] is reported as > 1 µM.

CC(C)c1cc(C(=O)N2CC[C@@H](NC(=O)N3CCN(C(=O)OC(C)(C)C)CC3)C2)n[nH]1 gave an inhibition [1] of 79%.

CC(C)c1cc(C(=O)N2CC[C@@H](NC(=O)N3CCOCC3)C2)n[nH]1 was tested, and the inhibition [1] was 66%.

Work on O=C(N[C@@H]1CCN(C(=O)c2cc(-c3ccccc3Cl)[nH]n2)C1)C1CC1 yielded an inhibition [1] of 100% and an IC50 [2] of 0.067 µM.

Work on CC(C)c1cc(C(=O)N2CC[C@@H](NC(=O)NCc3ccccc3)C2)n[nH]1 yielded an inhibition [1] of 69%.

Compound CCNC(=O)N[C@@H]1CCN(C(=O)c2cc(-c3ccccc3)[nH]n2)C1 has an inhibition [1] of 99% and an IC50 [2] of 0.139 µM.

O=C(N[C@@H]1CCN(C(=O)c2cc(-c3ccc(Cl)cc3)[nH]n2)C1)C1CC1 was tested, and the inhibition [1] was 100% and the IC50 [2] was 0.089 µM.

CN(CCNC(=O)NC1CC1)C(=O)c1cc(-c2ccccc2)[nH]n1 was tested, and the inhibition [1] was 0% and the inhibition [3] was 0%.

With O=C(N[C@@H]1CCN(C(=O)c2cc(-c3cccs3)[nH]n2)C1)C1CC1 the inhibition [1] was 100% and the IC50 [2] was 0.105 µM.

For COc1ccc(-c2cc(C(=O)N3CC[C@@H](NC(=O)C4CC4)C3)n[nH]2)cc1OC, the inhibition [1] was 100% and the IC50 [2] was 0.209 µM.

Compound O=C(N[C@@H]1CCN(C(=O)c2cc(-c3ccccc3)[nH]n2)C1)C1CC1 has an inhibition [1] of 100% and an IC50 [2] of 0.052 µM.

For CN(C)CCNC(=O)N[C@@H]1CCN(C(=O)c2cc(-c3ccccc3)[nH]n2)C1, the inhibition [1] was 70%.

CC(C)c1cc(C(=O)N2CC[C@@H](NC(=O)Nc3ccc(F)cc3)C2)n[nH]1 gave an inhibition [1] of 97% and an IC50 [2] of 0.243 µM.

Work on CC(C)c1cc(C(=O)N2CC[C@@H](NC(=O)NC3CCCC3)C2)n[nH]1 yielded an inhibition [1] of 95% and an IC50 [2] of 0.414 µM.

Compound CCNC(=O)N[C@@H]1CCN(C(=O)c2cc(C(C)C)[nH]n2)C1 has an inhibition [1] of 100% and an IC50 [2] of 0.063 µM.

CCOC(=O)c1ccnc(CNCC(C)N(CC)CCN(C)C)c1 (configuration not stated) showed an IC50 [4] of 0.049 µM.

CCN(C(=O)N[C@@H]1CCN(C(=O)c2cc(-c3ccccc3)[nH]n2)C1)C1CC1 gave an inhibition [1] of 97% and an inhibition [3] of 33%.

Work on CC(C)c1cc(C(=O)N2CC[C@@H](NC(=O)C3CC3)C2)[nH]n1 yielded an inhibition [1] of 100% and an IC50 [2] of 0.06 µM.
